Experiments:
Experiment in all cases: radiometric filter-binding kinase assay, Kinase HotSpot
Conditions in all cases: compound 0.5 µM; ATP 10 µM
[1] = molecular target: TGFBR2 (human) (UniProt P37173)
[2] = molecular target: MAP3K14 (human) (UniProt Q99558)
[3] = molecular target: FYN (human) (UniProt P06241)
[4] = molecular target: STK17A (human) (UniProt Q9UEE5)
[5] = molecular target: PDGFRA (human) (UniProt P16234)
[6] = molecular target: RIPK2 (human) (UniProt O43353)
[7] = molecular target: EPHB4 (human) (UniProt P54760)
Chain of EPHB4 (human) (P54760 whole entry, looked up): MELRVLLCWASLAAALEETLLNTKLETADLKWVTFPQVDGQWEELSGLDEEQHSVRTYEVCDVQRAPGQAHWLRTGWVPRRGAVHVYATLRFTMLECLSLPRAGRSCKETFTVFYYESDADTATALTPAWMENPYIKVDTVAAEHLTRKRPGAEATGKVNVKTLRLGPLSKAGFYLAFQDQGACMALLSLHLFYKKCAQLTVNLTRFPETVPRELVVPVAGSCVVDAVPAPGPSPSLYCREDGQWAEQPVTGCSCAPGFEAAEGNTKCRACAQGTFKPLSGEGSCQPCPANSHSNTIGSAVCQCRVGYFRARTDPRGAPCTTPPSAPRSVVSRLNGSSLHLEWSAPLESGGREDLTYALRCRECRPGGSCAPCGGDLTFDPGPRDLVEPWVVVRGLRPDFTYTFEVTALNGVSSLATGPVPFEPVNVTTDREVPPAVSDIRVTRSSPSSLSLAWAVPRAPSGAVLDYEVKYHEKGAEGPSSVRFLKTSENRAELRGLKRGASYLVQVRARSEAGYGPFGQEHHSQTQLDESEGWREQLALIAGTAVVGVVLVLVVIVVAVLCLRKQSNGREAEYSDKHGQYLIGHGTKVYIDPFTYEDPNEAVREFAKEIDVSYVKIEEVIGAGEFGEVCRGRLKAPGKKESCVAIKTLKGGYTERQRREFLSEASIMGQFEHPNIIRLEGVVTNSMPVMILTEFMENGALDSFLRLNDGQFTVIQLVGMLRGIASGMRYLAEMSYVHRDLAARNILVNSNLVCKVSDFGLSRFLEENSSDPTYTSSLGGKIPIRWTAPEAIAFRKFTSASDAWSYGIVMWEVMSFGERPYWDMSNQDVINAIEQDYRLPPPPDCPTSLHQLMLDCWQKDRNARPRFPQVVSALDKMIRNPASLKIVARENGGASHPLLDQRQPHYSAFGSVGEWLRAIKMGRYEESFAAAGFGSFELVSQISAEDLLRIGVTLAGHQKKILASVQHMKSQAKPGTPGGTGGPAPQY

[8] = molecular target: ACVR1 (human) (UniProt Q04771)
Chain of ACVR1 (human) (Q04771 whole entry, looked up): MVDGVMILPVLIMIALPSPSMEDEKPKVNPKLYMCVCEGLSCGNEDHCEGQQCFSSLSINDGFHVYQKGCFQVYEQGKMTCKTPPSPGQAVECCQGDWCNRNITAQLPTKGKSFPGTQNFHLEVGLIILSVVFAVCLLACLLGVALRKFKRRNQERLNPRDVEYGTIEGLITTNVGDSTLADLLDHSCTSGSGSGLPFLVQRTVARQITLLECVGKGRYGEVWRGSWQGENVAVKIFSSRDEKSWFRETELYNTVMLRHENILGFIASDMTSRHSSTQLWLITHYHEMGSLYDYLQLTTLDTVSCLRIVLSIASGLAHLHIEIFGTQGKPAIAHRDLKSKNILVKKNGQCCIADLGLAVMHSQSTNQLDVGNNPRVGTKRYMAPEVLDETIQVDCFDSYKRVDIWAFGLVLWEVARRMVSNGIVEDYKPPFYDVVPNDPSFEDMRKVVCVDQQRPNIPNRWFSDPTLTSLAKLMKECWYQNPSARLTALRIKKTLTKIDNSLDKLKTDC

[9] = molecular target: PLK1 (human) (UniProt P53350)
[10] = molecular target: CDK4 CCND1 (human) (UniProt P24385+P11802)
[11] = molecular target: CLK3 (human) (UniProt P49761)
[12] = molecular target: PHKG1 (human) (UniProt Q16816)
Chain of PHKG1 (human) (Q16816 whole entry, looked up): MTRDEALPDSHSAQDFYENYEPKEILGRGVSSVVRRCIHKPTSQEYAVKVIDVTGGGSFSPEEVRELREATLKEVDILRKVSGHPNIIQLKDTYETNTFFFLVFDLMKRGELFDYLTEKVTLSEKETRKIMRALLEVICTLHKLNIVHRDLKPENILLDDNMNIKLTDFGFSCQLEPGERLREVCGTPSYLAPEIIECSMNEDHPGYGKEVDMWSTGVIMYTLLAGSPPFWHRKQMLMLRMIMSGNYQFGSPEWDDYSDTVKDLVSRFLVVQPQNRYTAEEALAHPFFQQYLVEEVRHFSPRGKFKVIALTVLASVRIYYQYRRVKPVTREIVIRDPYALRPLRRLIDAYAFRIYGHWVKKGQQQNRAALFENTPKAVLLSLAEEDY

[13] = molecular target: MERTK (human) (UniProt Q12866)
[14] = molecular target: PRKCB1 (human) (UniProt P05771)
[15] = molecular target: MST1R (human) (UniProt Q04912)
[16] = molecular target: MAP3K5 (human) (UniProt Q99683)
[17] = molecular target: ROCK1 (human) (UniProt Q13464)
[18] = molecular target: TBK1 (human) (UniProt Q9UHD2)
[19] = molecular target: DCLK2 (human) (UniProt Q8N568)
[20] = molecular target: MAPK11 (human) (UniProt Q15759)
[21] = molecular target: TXK (human) (UniProt P42681)
[22] = molecular target: CDK6 CCND1 (human) (UniProt Q00534+P24385)
[23] = molecular target: MAPK12 (human) (UniProt P53778)
[24] = molecular target: CDK4 CCND3 (human) (UniProt P30281+P11802)
[25] = molecular target: EPHA2 (human) (UniProt P29317)
[26] = molecular target: EPHB3 (human) (UniProt P54753)
[27] = molecular target: CHEK2 (human) (UniProt O96017)
Chain of CHEK2 (human) (O96017 whole entry, looked up): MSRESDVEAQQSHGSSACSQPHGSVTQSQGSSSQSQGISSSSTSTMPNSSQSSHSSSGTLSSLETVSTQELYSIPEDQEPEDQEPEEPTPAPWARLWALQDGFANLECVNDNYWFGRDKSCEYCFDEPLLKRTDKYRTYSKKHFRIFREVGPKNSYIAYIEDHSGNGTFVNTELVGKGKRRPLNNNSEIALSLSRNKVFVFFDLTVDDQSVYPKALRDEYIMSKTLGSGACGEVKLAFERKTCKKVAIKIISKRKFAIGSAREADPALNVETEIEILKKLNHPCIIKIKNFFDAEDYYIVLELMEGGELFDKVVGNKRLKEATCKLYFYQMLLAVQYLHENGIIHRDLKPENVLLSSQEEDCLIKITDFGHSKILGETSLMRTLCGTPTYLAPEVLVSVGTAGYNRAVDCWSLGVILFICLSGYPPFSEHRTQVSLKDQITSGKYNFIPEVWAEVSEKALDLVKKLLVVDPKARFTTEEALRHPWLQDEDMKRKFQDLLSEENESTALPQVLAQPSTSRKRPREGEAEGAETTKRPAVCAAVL

[28] = molecular target: TYK2 JH1 catalytic (human) (UniProt P29597)
[29] = molecular target: KDR (human) (UniProt P35968)
[30] = molecular target: TEC (human) (UniProt P42680)
[31] = molecular target: JAK3 JH1 JH2 (human) (UniProt P52333)
Chain of JAK3 JH1 JH2 (human) (P52333 whole entry, looked up): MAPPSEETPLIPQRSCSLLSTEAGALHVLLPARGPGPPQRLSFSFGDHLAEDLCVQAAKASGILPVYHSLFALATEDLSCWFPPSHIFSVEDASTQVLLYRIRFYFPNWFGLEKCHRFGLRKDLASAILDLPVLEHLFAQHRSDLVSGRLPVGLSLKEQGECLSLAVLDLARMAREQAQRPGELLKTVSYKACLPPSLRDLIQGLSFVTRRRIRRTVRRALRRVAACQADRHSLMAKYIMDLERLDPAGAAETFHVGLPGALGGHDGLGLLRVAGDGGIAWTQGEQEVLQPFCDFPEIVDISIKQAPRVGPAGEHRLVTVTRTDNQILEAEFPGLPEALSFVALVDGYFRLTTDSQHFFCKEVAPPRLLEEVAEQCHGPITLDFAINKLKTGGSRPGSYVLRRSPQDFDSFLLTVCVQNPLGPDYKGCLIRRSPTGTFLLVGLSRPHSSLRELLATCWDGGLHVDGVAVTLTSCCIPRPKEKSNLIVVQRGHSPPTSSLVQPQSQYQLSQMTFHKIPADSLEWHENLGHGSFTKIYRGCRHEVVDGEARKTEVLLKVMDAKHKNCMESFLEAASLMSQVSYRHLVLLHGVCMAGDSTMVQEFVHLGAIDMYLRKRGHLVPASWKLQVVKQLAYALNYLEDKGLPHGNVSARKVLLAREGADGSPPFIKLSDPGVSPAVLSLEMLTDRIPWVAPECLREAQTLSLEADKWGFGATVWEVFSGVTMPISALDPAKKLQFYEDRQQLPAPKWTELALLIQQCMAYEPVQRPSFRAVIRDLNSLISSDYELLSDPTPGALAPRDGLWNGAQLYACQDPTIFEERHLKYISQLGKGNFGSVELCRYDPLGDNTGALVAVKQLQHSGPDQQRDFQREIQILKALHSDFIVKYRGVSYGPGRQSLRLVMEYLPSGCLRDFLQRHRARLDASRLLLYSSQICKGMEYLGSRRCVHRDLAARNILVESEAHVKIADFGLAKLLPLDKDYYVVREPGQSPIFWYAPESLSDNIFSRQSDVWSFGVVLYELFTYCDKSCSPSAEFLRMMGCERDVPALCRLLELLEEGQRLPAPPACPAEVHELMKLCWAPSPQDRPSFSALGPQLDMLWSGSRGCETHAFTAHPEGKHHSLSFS

[32] = molecular target: PIM1 (human) (UniProt P11309)
[33] = molecular target: DAPK1 (human) (UniProt P53355)
[34] = molecular target: FER (human) (UniProt P16591)
[35] = molecular target: AURKB (human) (UniProt Q96GD4)
[36] = molecular target: CDC42BPB (human) (UniProt Q9Y5S2)
[37] = molecular target: PAK4 (human) (UniProt O96013)
[38] = molecular target: AKT1 (human) (UniProt P31749)
[39] = molecular target: MAPK14 (human) (UniProt Q16539)
[40] = molecular target: ERBB2 (human) (UniProt P04626)
[41] = molecular target: NEK2 (human) (UniProt P51955)
[42] = molecular target: CSNK1D (human) (UniProt P48730)

Chain of MAP3K14 (human) (Q99558 whole entry, looked up): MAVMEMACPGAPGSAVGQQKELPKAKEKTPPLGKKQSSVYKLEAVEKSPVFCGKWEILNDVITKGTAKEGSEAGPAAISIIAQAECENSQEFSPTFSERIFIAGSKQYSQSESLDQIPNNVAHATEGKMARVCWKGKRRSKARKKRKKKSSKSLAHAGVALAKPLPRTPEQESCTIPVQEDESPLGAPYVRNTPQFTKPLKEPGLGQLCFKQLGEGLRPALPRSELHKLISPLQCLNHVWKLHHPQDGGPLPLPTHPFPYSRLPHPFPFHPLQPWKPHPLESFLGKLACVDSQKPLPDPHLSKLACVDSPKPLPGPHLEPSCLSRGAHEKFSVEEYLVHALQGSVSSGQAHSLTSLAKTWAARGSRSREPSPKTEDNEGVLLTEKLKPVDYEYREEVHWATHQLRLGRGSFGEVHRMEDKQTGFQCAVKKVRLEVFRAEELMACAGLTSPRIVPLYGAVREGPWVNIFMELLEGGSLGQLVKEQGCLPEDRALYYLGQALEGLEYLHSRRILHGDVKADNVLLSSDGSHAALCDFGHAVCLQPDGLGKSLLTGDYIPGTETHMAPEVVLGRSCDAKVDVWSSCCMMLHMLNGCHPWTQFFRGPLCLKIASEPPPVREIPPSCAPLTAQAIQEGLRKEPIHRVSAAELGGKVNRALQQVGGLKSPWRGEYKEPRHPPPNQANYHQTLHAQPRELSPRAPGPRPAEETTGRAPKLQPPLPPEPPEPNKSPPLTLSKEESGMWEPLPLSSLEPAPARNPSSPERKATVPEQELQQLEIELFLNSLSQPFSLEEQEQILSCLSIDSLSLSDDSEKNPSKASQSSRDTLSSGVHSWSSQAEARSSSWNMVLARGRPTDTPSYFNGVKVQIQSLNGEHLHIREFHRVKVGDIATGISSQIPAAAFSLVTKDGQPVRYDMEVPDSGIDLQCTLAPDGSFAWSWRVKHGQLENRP
Chain of STK17A (human) (Q9UEE5 whole entry, looked up): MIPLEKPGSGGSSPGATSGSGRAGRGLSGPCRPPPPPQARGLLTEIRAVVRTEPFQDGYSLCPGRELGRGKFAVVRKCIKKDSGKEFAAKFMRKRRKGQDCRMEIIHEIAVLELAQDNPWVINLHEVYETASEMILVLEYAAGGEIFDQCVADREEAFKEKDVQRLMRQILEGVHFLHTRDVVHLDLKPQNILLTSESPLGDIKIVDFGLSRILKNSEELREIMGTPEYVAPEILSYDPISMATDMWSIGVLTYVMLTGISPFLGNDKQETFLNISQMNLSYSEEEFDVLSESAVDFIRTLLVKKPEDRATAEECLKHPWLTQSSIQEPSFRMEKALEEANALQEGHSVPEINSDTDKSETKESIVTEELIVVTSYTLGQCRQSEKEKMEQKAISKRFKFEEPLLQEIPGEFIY

NC(=O)c1ccc(N(C(N)=O)c2c(F)cccc2F)nc1-c1ccc(F)cc1F
residual activity [1]: 102%
residual activity [2]: 114%
residual activity [3]: 110%
residual activity [4]: 100%
residual activity [5]: 102%
residual activity [6]: 101%
residual activity [7]: 83.9%
residual activity [8]: 105%
residual activity [9]: 95.1%
residual activity [10]: 96.8%
residual activity [11]: 112%
residual activity [12]: 92%
residual activity [13]: 114%
residual activity [14]: 86.1%
residual activity [15]: 90.1%
residual activity [16]: 102%
residual activity [17]: 108%
residual activity [18]: 106%
residual activity [19]: 97.5%
residual activity [20]: 22.3%
residual activity [21]: 104%
residual activity [22]: 95.1%
residual activity [23]: 92.1%
residual activity [24]: 98.4%
residual activity [25]: 89%
residual activity [26]: 65.8%
residual activity [27]: 97.6%
residual activity [28]: 93.5%
residual activity [29]: 96.5%
residual activity [30]: 114%
residual activity [31]: 95.7%
residual activity [32]: 98.8%
residual activity [33]: 98.2%
residual activity [34]: 95.6%
residual activity [35]: 91.3%
residual activity [36]: 96.5%
residual activity [37]: 92.6%
residual activity [38]: 84.7%
residual activity [39]: 5.23%
residual activity [40]: 106%
residual activity [41]: 109%
residual activity [42]: 89.8%

Cc1ccc(NC(=O)c2ccc(CN3CCN(C)CC3)cc2)cc1Nc1nc(-c2cccnc2)cs1
residual activity [1]: 101%
residual activity [2]: 91%
residual activity [3]: 37.3%
residual activity [4]: 104%
residual activity [5]: 1.64%
residual activity [6]: 108%
residual activity [7]: 97.3%
residual activity [8]: 101%
residual activity [9]: 101%
residual activity [10]: 94.1%
residual activity [11]: 93.6%
residual activity [12]: 92.2%
residual activity [13]: 109%
residual activity [14]: 101%
residual activity [15]: 104%
residual activity [16]: 95%
residual activity [17]: 102%
residual activity [18]: 97%
residual activity [19]: 102%
residual activity [20]: 102%
residual activity [21]: 101%
residual activity [22]: 98%
residual activity [23]: 96.9%
residual activity [24]: 115%
residual activity [25]: 91.2%
residual activity [26]: 80.9%
residual activity [27]: 101%
residual activity [28]: 101%
residual activity [29]: 106%
residual activity [30]: 83.2%
residual activity [31]: 93.7%
residual activity [32]: 86.4%
residual activity [33]: 97.5%
residual activity [34]: 97.6%
residual activity [35]: 99.5%
residual activity [36]: 98.1%
residual activity [37]: 103%
residual activity [38]: 93.2%
residual activity [39]: 98.1%
residual activity [40]: 103%
residual activity [41]: 96.7%
residual activity [42]: 92.7%

CC(C)n1cnc2c(Nc3cccc(Cl)c3)nc(NCCO)nc21
residual activity [1]: 70.2%
residual activity [2]: 97.4%
residual activity [3]: 60.4%
residual activity [4]: 96.8%
residual activity [5]: 96.4%
residual activity [6]: 84.3%
residual activity [7]: 82%
residual activity [8]: 80.3%
residual activity [9]: 44.1%
residual activity [10]: 77%
residual activity [11]: 77.8%
residual activity [12]: 75.8%
residual activity [13]: 89.7%
residual activity [14]: 102%
residual activity [15]: 101%
residual activity [16]: 114%
residual activity [17]: 101%
residual activity [18]: 89.2%
residual activity [19]: 97.8%
residual activity [20]: 92.2%
residual activity [21]: 78.1%
residual activity [22]: 95.5%
residual activity [23]: 102%
residual activity [24]: 93.3%
residual activity [25]: 93.3%
residual activity [26]: 119%
residual activity [27]: 78.5%
residual activity [28]: 105%
residual activity [29]: 103%
residual activity [30]: 113%
residual activity [31]: 24.7%
residual activity [32]: 93.9%
residual activity [33]: 78.8%
residual activity [34]: 79.5%
residual activity [35]: 106%
residual activity [36]: 109%
residual activity [37]: 105%
residual activity [38]: 103%
residual activity [39]: 90.7%
residual activity [40]: 96.2%
residual activity [41]: 97.6%
residual activity [42]: 48.5%

— the kinase profiling compilation of Christmann-Franck et al. (2016)
